Laboratory results taken from publication PMC10601989, “Charge and lipophilicity are required for effective block of the hair-cell mechano-electrical transducer channel by FM1-43 and its derivatives” (Frontiers in Cell and Developmental Biology, 2023).

These compounds were tested on T1, hair-cell mechano-electrical transducer (MET) channel (native, mouse cochlear outer hair cells) (assay: whole-cell patch clamp of MET currents, fluid-jet bundle stimulation, fractional block). Conditions: -64 mV; extracellular superfusion, 1.3 mM Ca2+, pH 7.48, room temperature; permeant voltage-dependent block.
T1 construct: gene Tmc1; native full-length MET complex in outer hair cells of P2 organotypic cochlear cultures kept 1-2 days in vitro; TMC1 and/or TMC2 pore with TMIE (subunits named only in the discussion; copy numbers from the C. elegans cryo-EM structure it cites); with Transmembrane inner ear expressed protein
Format: cell-based

| Compound | % block at 10 μM |
| --- | --- |
| CCCCN(CCCC)c1ccc(/C=C/c2cc[n+](CCCCC[N+](CC)(CC)CC)cc2)cc1 [compound 13667, 13667] | > 80% |
| CCCCN(CCCC)c1ccc(/C=C/c2cc[n+](CCCC(=O)OCC)cc2)cc1 [compound 13551, 13551] | > 80% |
| CCCCN(CCCC)c1ccc(/C=C/c2cc[n+](CCCC[N+](CC)(CC)CC)cc2)cc1 [compound 13669, 13669] | > 80% |
| CCCCN(CCCC)c1ccc(/C=C/c2cc[n+](CCC[N+](CC)(CC)CC)cc2)cc1 [compound 13550, FM1-43] | ~ 30% |
